According to BindingDB's records for patent US10428104 (Pfizer Inc., 2019):

Biological target: Protein arginine N-methyltransferase 5 (Homo sapiens, UniProt O14744)
Assay: PRMT5 assay
Procedure: Following dilution, 1 ul was added to an empty 96-well microtiter plate. PRMT5/MEP50 protein complex was combined with H4(1-21) peptide ([…]) in PRMT5 assay buffer (50 mM Tris pH 8.5, 50 mM NaCl, 5 mM MgCl2, 1 mM EDTA, 1 mM TCEP) and 44 ul was added to the microtiter plate containing compound. S-Adenosyl-L-methionine (SAM) was prepared by combining 3H labelled SAM with unlabelled SAM in PRMT5 assay buffer such that the final SAM concentration was 10 uM and the specific activity was 0.2 uCi/ul. The reaction was initiated by adding 5 ul of SAM stock to the microtiter plate. The final reaction conditions were 10 nM PRMT5/MEP50 complex, 200 nM peptide and 1 uM SAM. Following a 25 minute incubation at room temperature, the reaction was stopped with the addition of 100 uL of 20% TCA. The 3H-peptide product was captured using a 96-well filter plate (MSIPN4B, Millipore) and washed 5 times with PBS buffer. Scintillation fluid (100 ul) was added to the dried filter plate and counted in a liquid scintillation counter. IC50 values were determined by fitting the data to the standard 4-parameter dose response equation using Pfizer proprietary software.

Sequence of Protein arginine N-methyltransferase 5 (O14744 whole entry): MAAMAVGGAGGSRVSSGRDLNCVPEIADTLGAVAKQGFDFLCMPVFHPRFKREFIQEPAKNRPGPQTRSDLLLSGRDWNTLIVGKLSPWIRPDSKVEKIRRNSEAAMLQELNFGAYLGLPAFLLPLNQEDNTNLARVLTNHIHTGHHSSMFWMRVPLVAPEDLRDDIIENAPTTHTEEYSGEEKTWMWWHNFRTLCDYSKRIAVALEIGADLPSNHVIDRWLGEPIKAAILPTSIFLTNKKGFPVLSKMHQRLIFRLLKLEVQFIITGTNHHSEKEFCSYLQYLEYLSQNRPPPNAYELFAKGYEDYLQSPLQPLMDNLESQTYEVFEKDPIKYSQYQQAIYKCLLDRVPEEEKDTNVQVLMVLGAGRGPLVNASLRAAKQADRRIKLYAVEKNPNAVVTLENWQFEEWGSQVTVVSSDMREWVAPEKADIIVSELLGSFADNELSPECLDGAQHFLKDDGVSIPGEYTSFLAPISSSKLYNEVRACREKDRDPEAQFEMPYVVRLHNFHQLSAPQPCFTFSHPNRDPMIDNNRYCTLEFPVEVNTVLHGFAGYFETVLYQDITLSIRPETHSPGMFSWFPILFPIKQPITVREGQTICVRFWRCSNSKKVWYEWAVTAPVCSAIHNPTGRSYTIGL

| IC50 [µM] | SMILES |
| --- | --- |
| 14.7 | Cc1ncnc2c1ccn2[C@@H]1O[C@H]([C@@H](O)c2cnn(C)c2)[C@@H](O)[C@H]1O [US10428104, Example 51] |
| 0.15 | Cc1ncnc2c1ccn2[C@@H]1O[C@H]([C@H](O)c2cccc3cc[nH]c23)[C@@H](O)[C@H]1O [US10428104, Example 82] |
| 0.05 | Cc1ncnc2c1ccn2[C@@H]1O[C@H]([C@H](O)c2cnn(C)c2)[C@@H](O)[C@H]1O [US10428104, Example 50] |
